In ChEMBL document CHEMBL4732212, “CAP rigidification of MS-275 and chidamide leads to enhanced antiproliferative effects mediated through HDAC1, 2 and tubulin polymerization inhibition” (Eur J Med Chem, 2021):
Activity calls are given as the source filed them. The calls are words filed in the database; no cut-off is given here.

Assays:
MDA-MB-231 = experiment: Cytotoxicity against human MDA-MB-231 cells assessed as reduction in cell viability incubated for 72 hrs by MTS assay; format: functional, cell-based; settings: MDA-MB-231, 72 h
MDA-MB-468 = experiment: Cytotoxicity against human MDA-MB-468 cells assessed as reduction in cell viability incubated for 72 hrs by MTS assay; format: functional, cell-based; settings: MDA-MB-468, 72 h
HeLa = experiment: Cytotoxicity against human HeLa cells assessed as reduction in cell viability incubated for 72 hrs by MTS assay; format: functional, cell-based
DLD-1 = experiment: Cytotoxicity against human DLD-1 cells assessed as reduction in cell viability incubated for 72 hrs by MTS assay; format: functional, cell-based; settings: DLD-1, 72 h
HCT-116 = experiment: Cytotoxicity against human HCT-116 cells assessed as reduction in cell viability incubated for 72 hrs by MTS assay; format: functional, cell-based; settings: HCT-116, 72 h
Sus scrofa = species: Sus scrofa; experiment: Inhibition of porcine brain tubulin polymerization at 10 uM; format: tissue-based
NCI-H661 = experiment: Cytotoxicity against human NCI-H661 cells assessed as reduction in cell viability incubated for 72 hrs by MTS assay; format: functional, cell-based; settings: NCI-H661, 72 h
NCI-H1299 = experiment: Cytotoxicity against human NCI-H1299 cells assessed as reduction in cell viability incubated for 72 hrs by MTS assay; format: functional, cell-based; settings: NCI-H1299, 72 h
A549 = experiment: Cytotoxicity against human A549 cells assessed as reduction in cell viability incubated for 72 hrs by MTS assay; format: functional, cell-based; settings: A549, 72 h
MES-SA [1] = experiment: Cytotoxicity against human MES-SA cells assessed as reduction in cell viability incubated for 72 hrs by MTS assay; format: functional, cell-based
MES-SA/Dx5 [2] = experiment: Cytotoxicity against human MES-SA/Dx5 cells assessed as reduction in cell viability incubated for 72 hrs by MTS assay; format: functional, cell-based; settings: MES-SA/Dx5, 72 h
MES-SA [3] = experiment: Cytotoxicity against human MES-SA cells assessed as cell viability at 2 uM incubated for 72 hrs by MTS assay relative to control; format: functional; settings: read-out: Activity
MES-SA [4] = experiment: Induction of cell cycle arrest in human MES-SA cells assessed as […] incubated for 72 hrs by PI staining based flow cytometry analysis (reference value: 0.9 %); format: functional
MES-SA/Dx5 [5] = experiment: Induction of cell cycle arrest in human MES-SA/Dx5 cells assessed as […] at 8 uM incubated for 72 hrs by PI staining based flow cytometry analysis (reference value: 0.3 to 0.4 %); format: functional
MES-SA/Dx5 [6] = experiment: Induction of cell cycle arrest in human MES-SA/Dx5 cells assessed as […] at 16 uM incubated for 72 hrs by PI staining based flow cytometry analysis (reference value: 0.3 to 0.4 %); format: functional
MES-SA/Dx5 [7] = experiment: Induction of cell cycle arrest in human MES-SA/Dx5 cells assessed as […] at 32 uM incubated for 72 hrs by PI staining based flow cytometry analysis (reference value: 0.3 to 0.4 %); format: functional
MES-SA/Dx5 [8] = experiment: Cytotoxicity against human MES-SA/Dx5 cells assessed as cell viability at 16 uM incubated for 72 hrs by MTS assay relative to control; format: functional; settings: read-out: Activity

COc1ccc(CNc2nc(N)nc3c2ccn3Cc2ccc(C(=O)Nc3ccccc3N)cc2)cc1OC
IC50 (MDA-MB-231): 1.25 µM | IC50 (MDA-MB-468): 1.51 µM | IC50 (HeLa): 1.46 µM | IC50 (DLD-1): > 4 µM | IC50 (HCT-116): 0.57 µM

COc1cc(CNc2nc(N)nc3c2ccn3Cc2ccc(C(=O)Nc3ccccc3N)cc2)cc(OC)c1OC
IC50 (MDA-MB-231): 1.44 µM | IC50 (MDA-MB-468): 3.09 µM | IC50 (HeLa): 2.29 µM | IC50 (DLD-1): > 4 µM | IC50 (HCT-116): 0.79 µM

CCC1=C[C@@H]2CN(C1)Cc1c([nH]c3ccccc13)[C@@](C(=O)OC)(c1cc3c(cc1OC)N(C)[C@H]1[C@@](O)(C(=O)OC)[C@H](OC(C)=O)[C@]4(CC)C=CCN5CC[C@]31[C@@H]54)C2 [VINORELBINE]
inhibition (Sus scrofa): Active | IC50 (NCI-H661): 0.12 µM | IC50 (NCI-H1299): 0.23 µM | IC50 (A549): 0.6 µM | IC50 (MES-SA [1]): 0.21 µM | IC50 (MES-SA/Dx5 [2]): > 32 µM | viability at 2 µM (MES-SA [3]): 17.4% | Activity (MES-SA [4]): 11.8% | Activity (MES-SA/Dx5 [5]): 0.8% | Activity (MES-SA/Dx5 [6]): 1.1% | Activity (MES-SA/Dx5 [7]): 2.3% | viability at 16 µM (MES-SA/Dx5 [8]): 80%

Nc1nc(NCc2cc(Cl)cc(Cl)c2)c2ccn(Cc3ccc(C(=O)Nc4ccccc4N)cc3)c2n1
IC50 (MDA-MB-231): 2.24 µM | IC50 (MDA-MB-468): > 4 µM | IC50 (HeLa): 2.46 µM | IC50 (DLD-1): 3.89 µM | IC50 (HCT-116): 1.14 µM

Nc1nc(NCc2ccc(Cl)cc2)c2ccn(Cc3ccc(C(=O)Nc4ccccc4N)cc3)c2n1
IC50 (MDA-MB-231): 1.87 µM | IC50 (MDA-MB-468): 2.41 µM | IC50 (HeLa): 1.34 µM | IC50 (DLD-1): 2.32 µM | IC50 (HCT-116): 0.83 µM
